{"source": "patent US20100062517A1", "about": "“In situ production of microbial pigments for metal and actinide immobilization” (priority 2008, published 2010)", "key": {"4-HPPD": {"tested_on": "4-HPPD", "experiment": "Pigment production in pure cultures of soil isolates with sulcotrione", "assay_type": "cell-based, soil isolates (bacteria)", "conditions": "sulcotrione 18 μM, LBSM with tyrosine 1 g/l, absorbance 400 nm, relative to no inhibitor", "excerpt": "Initial characterization of pigment included intensity of coloration and diffusion through agar media. Dark black non-diffusive pigments are indicative of DOPA melanin whereas reddish brown diffusive pigments are more likely pyomelanin. The chemical sulcotrione (Zeneca Agrochemicals) was used as a specific competitive inhibitor of 4-HPPD, the enzyme required for pyomelanin production. Methods incorporated sulcotrione to determine if pigment production was a result of 4-HPPD. Pure cultures of soil isolates were grown in LBSM and tyrosine (1 g/l) was supplemented to promote pigment production. Sulcotrione (18 μM) was added prior to pigmentation in order to differentiate pyomelanin production from other pigments that may be produced. Pigment production was quantified spectrophotometrically (400 nm) in cell free culture fluid. Controls for comparison were without tyrosine or without sulcotrione."}, "Tims Branch soil": {"tested_on": "Tims Branch soil", "experiment": "Field soil columns treated with tyrosine", "set-up": "species or system indigenous soil bacteria", "description": "Additionally, the following soil properties were analyzed: percent organic matter by loss-on-ignition at a temperature of 375° C. and pH was determined from a 1:1 mineral/water equilibration solution. Also, total concentration of U in a homogenized soil sample was determined by a total microwave digestion of 0.6 g of homogenized soil material with concentrated acids (10 ml of HNO3, 4 ml of H2SO4, and 2 ml of HCl). The resulting extract solution was analyzed by ICP-MS. Changes in the organic content of soils due to pyomelanin production were also determined by spectrophotometric absorbance (400 nm) of particle free supernatants and Fourier transform infrared (FTIR) spectroscopy. Soil samples were removed (5-10 g/column) 28 days after treatment addition for pore water analysis. Optical density was determined for centrifuged soil to determine the degree of pigmentation resulting from tyrosine amendments. Dried pigments from soil effluents (60° C.) were then further characterized using FTIR spectroscopy and compared to that of pure tyrosine and dihydroxyphenylalanine (DOPA) melanin (Aldrich Chemicals). […] All samples were analyzed using a ThermoElectron Smart Orbit diamond single bounce attenuated total reflectance accessory. […] During field incubation rainfall was measured at 12.1 cm. […] Samples were processed the next day and analyzed for metals and pH."}}, "data": [{"smiles": "CS(=O)(=O)c1ccc(C(=O)C2C(=O)CCCC2=O)c(Cl)c1", "note": "[sulcotrione]", "values": [{"measurement": "Pigment production in bacterial cultures", "setting": "4-HPPD", "value": "halted"}]}, {"smiles": "N[C@@H](Cc1ccc(O)cc1)C(=O)O", "note": "[tyrosine]", "values": [{"measurement": "U in pore water compared to controls", "setting": "Tims Branch soil; 30 days after treatment, 10, 30 and 50 cm depths", "value": "significantly decreased"}, {"measurement": "Duration of U immobilization", "setting": "Tims Branch soil; one-time addition of tyrosine to soil", "value": "at least 13 months"}]}]}
